The target in assay [1] is T1, Cysteine--tRNA ligase, cytoplasmic (Homo sapiens, UniProt P49589).
T1 sequence (P49589 whole entry): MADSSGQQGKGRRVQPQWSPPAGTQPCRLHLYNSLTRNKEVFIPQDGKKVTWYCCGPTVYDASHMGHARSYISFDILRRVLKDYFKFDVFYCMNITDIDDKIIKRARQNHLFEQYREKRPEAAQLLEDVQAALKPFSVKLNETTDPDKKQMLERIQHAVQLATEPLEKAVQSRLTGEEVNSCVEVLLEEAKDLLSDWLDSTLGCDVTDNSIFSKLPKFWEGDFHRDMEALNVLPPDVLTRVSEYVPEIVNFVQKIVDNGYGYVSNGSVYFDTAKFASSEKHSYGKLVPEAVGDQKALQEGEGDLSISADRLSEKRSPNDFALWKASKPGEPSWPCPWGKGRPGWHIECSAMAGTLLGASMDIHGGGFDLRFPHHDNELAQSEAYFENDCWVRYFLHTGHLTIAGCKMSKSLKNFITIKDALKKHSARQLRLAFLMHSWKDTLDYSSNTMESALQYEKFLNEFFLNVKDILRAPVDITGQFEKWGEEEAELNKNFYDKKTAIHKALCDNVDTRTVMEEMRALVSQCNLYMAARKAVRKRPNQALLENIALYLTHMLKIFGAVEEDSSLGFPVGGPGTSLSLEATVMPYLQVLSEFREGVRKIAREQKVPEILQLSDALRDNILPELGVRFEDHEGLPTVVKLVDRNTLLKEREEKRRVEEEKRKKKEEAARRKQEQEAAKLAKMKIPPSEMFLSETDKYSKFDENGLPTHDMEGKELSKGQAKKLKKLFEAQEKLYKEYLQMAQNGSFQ

Assay [2] deals with T2, ATP-dependent RNA helicase DDX1 (Homo sapiens, UniProt Q92499).
T2 sequence (Q92499 whole entry): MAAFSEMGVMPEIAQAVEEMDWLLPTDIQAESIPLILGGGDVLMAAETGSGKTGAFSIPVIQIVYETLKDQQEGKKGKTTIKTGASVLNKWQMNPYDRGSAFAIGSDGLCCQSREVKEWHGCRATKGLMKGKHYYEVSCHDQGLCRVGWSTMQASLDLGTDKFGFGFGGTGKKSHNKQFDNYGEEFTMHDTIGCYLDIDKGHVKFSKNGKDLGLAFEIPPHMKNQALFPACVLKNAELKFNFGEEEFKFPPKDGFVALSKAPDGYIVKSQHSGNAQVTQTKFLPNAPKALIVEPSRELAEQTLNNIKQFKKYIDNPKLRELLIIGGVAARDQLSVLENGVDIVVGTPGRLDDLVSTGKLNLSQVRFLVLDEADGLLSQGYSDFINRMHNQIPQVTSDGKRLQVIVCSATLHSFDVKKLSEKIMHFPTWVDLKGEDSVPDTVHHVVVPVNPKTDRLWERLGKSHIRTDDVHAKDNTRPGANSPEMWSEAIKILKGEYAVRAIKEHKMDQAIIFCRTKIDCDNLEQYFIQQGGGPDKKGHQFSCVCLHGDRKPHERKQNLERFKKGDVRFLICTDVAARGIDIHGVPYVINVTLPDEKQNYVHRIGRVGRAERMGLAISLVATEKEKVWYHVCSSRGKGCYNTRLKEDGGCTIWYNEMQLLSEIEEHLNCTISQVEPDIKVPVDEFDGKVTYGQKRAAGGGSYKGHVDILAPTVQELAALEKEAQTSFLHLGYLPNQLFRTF

In assay [3] the target is T3, Mitogen-activated protein kinase kinase kinase 3 (Homo sapiens, UniProt Q99759).
T3 sequence (Q99759 whole entry): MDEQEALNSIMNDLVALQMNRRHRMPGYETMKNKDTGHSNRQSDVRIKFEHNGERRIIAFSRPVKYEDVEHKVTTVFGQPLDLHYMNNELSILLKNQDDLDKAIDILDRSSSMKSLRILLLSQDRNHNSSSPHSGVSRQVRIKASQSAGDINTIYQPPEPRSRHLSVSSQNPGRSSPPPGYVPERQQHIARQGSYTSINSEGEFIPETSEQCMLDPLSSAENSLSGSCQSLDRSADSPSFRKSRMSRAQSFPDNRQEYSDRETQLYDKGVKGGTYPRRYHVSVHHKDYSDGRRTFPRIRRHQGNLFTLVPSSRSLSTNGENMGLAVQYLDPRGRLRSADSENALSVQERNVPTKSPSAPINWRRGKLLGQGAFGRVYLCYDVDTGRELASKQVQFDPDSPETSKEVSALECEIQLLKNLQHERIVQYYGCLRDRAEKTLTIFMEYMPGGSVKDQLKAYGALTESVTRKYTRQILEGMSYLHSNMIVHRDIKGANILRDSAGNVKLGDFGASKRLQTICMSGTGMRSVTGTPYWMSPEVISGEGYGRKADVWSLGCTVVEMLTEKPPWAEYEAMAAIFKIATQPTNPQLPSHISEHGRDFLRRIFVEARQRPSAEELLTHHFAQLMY

Assay [4] deals with T4, Glycogen phosphorylase, brain form (Homo sapiens, UniProt P11216).
T4 sequence (P11216 whole entry): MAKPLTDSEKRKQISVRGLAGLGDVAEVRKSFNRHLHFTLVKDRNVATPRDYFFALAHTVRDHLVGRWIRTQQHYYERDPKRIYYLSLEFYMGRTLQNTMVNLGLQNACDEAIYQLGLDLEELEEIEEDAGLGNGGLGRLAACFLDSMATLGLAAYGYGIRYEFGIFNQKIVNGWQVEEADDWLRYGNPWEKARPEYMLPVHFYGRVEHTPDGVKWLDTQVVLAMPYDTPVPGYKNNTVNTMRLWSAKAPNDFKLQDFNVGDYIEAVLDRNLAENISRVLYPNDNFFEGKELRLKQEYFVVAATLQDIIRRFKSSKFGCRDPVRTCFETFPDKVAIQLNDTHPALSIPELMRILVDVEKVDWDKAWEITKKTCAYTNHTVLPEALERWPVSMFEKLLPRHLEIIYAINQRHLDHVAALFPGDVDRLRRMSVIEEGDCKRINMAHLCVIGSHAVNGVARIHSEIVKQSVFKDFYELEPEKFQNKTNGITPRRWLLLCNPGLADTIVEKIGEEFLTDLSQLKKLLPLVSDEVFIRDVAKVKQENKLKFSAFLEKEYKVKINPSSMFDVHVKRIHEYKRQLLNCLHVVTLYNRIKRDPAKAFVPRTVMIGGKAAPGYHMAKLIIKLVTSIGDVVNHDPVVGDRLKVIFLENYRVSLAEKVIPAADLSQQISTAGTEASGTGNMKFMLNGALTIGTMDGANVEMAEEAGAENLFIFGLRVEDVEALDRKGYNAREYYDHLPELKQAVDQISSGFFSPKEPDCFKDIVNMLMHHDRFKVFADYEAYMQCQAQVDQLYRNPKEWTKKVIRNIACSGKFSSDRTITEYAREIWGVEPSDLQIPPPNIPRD

Assay [5] concerns the target Rho-associated protein kinase 1 (Homo sapiens, UniProt Q13464).
For assay [6], the target named is Tyrosine-protein kinase Yes (Homo sapiens, UniProt P07947).
Tyrosine-protein kinase Yes, sequence (P07947 whole entry): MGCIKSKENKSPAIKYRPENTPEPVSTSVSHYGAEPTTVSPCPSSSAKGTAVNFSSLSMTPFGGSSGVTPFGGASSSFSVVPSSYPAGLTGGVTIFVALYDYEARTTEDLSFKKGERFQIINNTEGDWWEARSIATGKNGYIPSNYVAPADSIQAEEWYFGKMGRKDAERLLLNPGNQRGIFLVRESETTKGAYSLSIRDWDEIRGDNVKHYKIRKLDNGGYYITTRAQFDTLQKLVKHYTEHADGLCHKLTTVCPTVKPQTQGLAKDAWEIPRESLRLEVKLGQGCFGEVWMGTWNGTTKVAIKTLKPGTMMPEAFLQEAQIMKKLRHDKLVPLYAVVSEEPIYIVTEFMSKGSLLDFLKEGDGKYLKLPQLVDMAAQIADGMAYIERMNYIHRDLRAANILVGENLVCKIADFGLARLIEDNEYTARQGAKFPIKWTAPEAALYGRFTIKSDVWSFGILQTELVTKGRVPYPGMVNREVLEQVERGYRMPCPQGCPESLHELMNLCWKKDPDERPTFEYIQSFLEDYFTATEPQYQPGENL

The source made the active and inactive calls.
Further: in the data inactive means no Kd found up to 30 µM.

Rho-associated protein kinase 1, sequence (Q13464 whole entry): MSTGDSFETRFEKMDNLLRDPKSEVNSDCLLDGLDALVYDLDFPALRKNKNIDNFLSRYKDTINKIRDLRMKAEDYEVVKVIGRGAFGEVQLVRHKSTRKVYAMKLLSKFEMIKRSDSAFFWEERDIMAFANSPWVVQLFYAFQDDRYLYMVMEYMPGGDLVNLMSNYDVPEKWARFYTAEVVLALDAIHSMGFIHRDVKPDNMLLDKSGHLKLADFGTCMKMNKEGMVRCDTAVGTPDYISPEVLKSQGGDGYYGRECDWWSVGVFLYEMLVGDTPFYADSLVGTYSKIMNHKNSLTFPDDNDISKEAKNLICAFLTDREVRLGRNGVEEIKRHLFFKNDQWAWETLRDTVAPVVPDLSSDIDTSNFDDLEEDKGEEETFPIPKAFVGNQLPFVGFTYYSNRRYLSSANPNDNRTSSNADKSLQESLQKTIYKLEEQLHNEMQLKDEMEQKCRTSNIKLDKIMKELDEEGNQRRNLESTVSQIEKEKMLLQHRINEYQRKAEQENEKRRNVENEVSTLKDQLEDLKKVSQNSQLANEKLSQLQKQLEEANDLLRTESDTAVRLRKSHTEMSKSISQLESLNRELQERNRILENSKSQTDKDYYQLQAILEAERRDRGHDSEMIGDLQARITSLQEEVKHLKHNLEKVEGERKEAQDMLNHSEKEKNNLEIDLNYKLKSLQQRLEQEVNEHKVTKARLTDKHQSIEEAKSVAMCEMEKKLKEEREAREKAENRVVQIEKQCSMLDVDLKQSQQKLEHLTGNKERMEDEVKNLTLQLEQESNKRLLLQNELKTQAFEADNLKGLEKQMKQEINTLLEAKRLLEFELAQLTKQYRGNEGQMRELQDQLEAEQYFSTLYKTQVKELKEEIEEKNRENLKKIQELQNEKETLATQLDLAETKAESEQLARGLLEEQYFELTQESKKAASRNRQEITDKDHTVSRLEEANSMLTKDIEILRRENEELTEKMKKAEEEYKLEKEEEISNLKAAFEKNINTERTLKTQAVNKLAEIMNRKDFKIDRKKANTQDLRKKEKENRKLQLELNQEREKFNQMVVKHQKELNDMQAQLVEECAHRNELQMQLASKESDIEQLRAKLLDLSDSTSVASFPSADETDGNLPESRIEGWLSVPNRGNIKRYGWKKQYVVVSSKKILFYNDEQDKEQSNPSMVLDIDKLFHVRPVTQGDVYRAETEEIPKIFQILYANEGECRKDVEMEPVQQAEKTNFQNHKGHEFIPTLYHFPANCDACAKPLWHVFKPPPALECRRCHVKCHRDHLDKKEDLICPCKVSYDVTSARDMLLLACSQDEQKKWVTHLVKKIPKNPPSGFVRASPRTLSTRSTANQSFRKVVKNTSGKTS

With `COc1cc(OC)c(/C=C/S(=O)(=O)Cc2ccc(OC)c(NCC(=O)O)c2)c(OC)c1` [RIGOSERTIB], the Kd in assay [1], in assay [2], in assay [3], in assay [4], in assay [5] and in assay [6] was > 30 µM (inactive) throughout.

`CC[C@H](Nc1ncnc2[nH]cnc12)c1nc2cccc(F)c2c(=O)n1-c1ccccc1` [IDELALISIB]: the Kd in assay [1], in assay [2], in assay [3], in assay [4], in assay [5] and in assay [6] was > 30 µM (inactive) each time.

Consider `C[C@@H](c1ccc2nccn2c1)n1nnc2ncc(-c3cnn(C)c3)nc21` [SAVOLITINIB], for which the Kd in assay [1], in assay [2], in assay [3], in assay [4], in assay [5] and in assay [6] was > 30 µM (inactive) throughout.

With `CN1N=C(N)c2cn([C@@H]3O[C@H](COP(=O)(O)O)[C@@H](O)[C@H]3O)c3ncnc1c23` [TRICIRIBINE PHOSPHATE], the Kd in assay [1], in assay [2], in assay [3], in assay [4], in assay [5] and in assay [6] was > 30 µM (inactive) in each case.

`CNC(=O)CN1CCC(Oc2cc3c(Nc4cccc(Cl)c4F)ncnc3cc2OC)CC1` [SAPITINIB]: the Kd in assay [1], in assay [2], in assay [3], in assay [4], in assay [5] and in assay [6] was > 30 µM (inactive) throughout.

Turning to `O=C(c1ccc(F)c(F)c1Nc1ccc(I)cc1F)N1CC(O)([C@@H]2CCCCN2)C1` [COBIMETINIB], the Kd in assay [1], in assay [2], in assay [3], in assay [4], in assay [5] and in assay [6] was > 30 µM (inactive) in each case.

`C1=C/COCc2cc(ccc2OCCN2CCCC2)Nc2nccc(n2)-c2cccc(c2)COC/1` [PACRITINIB]: the Kd in assay [2], in assay [3], in assay [4], in assay [5] and in assay [6] was > 30 µM (inactive) in each case.

As to `COc1cc(N2CCC(N3CCN(C)CC3)CC2)ccc1Nc1ncnc(Nc2ccccc2S(=O)(=O)C(C)C)n1` [ASP-3026], the Kd is > 30 µM (inactive) in assay [2]; > 30 µM (inactive) in assay [3]; > 30 µM (inactive) in assay [4]; > 30 µM (inactive) in assay [5]; 0.781 µM (active) in assay [6].

Turning to `Cn1ncc(Cl)c1-c1cc(C(=O)N[C@H](CN)Cc2cccc(F)c2)sc1Cl` [AFURESERTIB], the Kd is > 30 µM (inactive) in assay [2]; > 30 µM (inactive) in assay [3]; > 30 µM (inactive) in assay [4]; 2.14 µM (active) in assay [5]; > 30 µM (inactive) in assay [6].

With `COC(=O)[C@@]1(O)C[C@H]2O[C@]1(C)n1c3ccccc3c3c4c(c5c6ccccc6n2c5c31)C(=O)NC4` [K-252A], the Kd in assay [2], in assay [3], in assay [4], in assay [5] and in assay [6] was > 30 µM (inactive) each time.

With `Cn1cc(-c2ccc3nnc(C(F)(F)c4ccc5ncccc5c4)n3n2)cn1` [JNJ-38877605], the Kd in assay [2], in assay [3], in assay [4], in assay [5] and in assay [6] was > 30 µM (inactive) throughout.

Take `CCN1CCN(Cc2ccc(-c3cc4c(N[C@H](C)c5ccccc5)ncnc4[nH]3)cc2)CC1` [AEE-788]: the Kd in assay [1], in assay [2], in assay [3], in assay [4] and in assay [5] was > 30 µM (inactive) each time.

For `Cn1cc(-c2ccc(F)c(C(F)(F)F)c2)nc1C1CCN(c2ncnc3[nH]ncc23)CC1` [LY-2584702], the Kd in assay [2], in assay [3], in assay [4], in assay [5] and in assay [6] was > 30 µM (inactive) throughout.

Take `CNC(=O)c1ccc(C)c(-n2c(C)cc(OCc3ccc(F)cc3F)c(Br)c2=O)c1` [PH-797804]: the Kd in assay [2], in assay [3], in assay [4], in assay [5] and in assay [6] was > 30 µM (inactive) each time.

In the case of `Cc1c(F)cc(C(=O)NC2CC2)cc1-c1ccc(C(=O)NCC(C)(C)C)cn1` [LOSMAPIMOD], the Kd in assay [2], in assay [3], in assay [4], in assay [5] and in assay [6] was > 30 µM (inactive) throughout.

In the case of `O=C1NC(=O)/C(=C/c2ccc3nccc(-c4ccncc4)c3c2)S1` [GSK-1059615], the Kd in assay [2], in assay [3], in assay [4], in assay [5] and in assay [6] was > 30 µM (inactive) in each case.

The values are drawn from ChEMBL document CHEMBL3991601, “The target landscape of clinical kinase drugs” (Science, 2017).
